In general, AUC(0-t) refers to the area under the concentration-time curve up to a stated or last time point. In general, Cmax refers to the maximum level reached in the sampled fluid or tissue. The term inhibition denotes the relative decrease from the control value, in per cent. For orientation: IC50 means the midpoint of a concentration-inhibition curve. By half-life is commonly meant how long it takes for the measured level to halve. Low readings indicate fast loss, high ones slow loss.

Bounds are passed on as bounds.

Data on 3 compounds can be found in patent EP4755886A1 (Chengdu Chipscreen Pharmaceutical Ltd., priority 2023, dated 2025).

One series is described as follows: PK experiment in rats. Format: in vivo. To be noted: rat; SD male rats, PO 10 mg/kg, vehicle 0.5% MC/0.2% Tween 80, plasma. The protocol: The samples were analyzed by LC-MS/MS. […] Table 6. Pharmacokinetic parameters for rats
A further series deals with T1, hERG (Homo sapiens, UniProt Q12809).
T1 construct: purchased ThermoFisher Scientific PV5365
The series can be described thus: hERG test (Predictor hERG Fluorescence Polarization Assay Kit). It is filed as binding. Conditions: for inhibition at 3.5 h, 10 µM: 10 µM test substance, three duplicate wells; for IC50: only 10 µM tested. The protocol: Predictor™ hERG Fluorescence Polarization Assay Kit (ThermoFisher Scientific, PV5365).
The procedures in the kit instructions were followed: 4× Predictor™ hERG Tracer Red, 4× E-4031, and 4× test substance solutions (final assay concentration: 10 µM) were prepared in advance. 5 µL Predictor™ hERG FP Assay Buffer and 5 µL Predictor™ hERG Membrane were added sequentially to the Assay Blank group in a 384-well plate. 2.5 µL Predictor™ hERG FP Assay Buffer, 2.5 µL of 4× E-4031, and 2.5 µL of 4× test substance were added to the negative control group, the positive control group, and the test substance group, respectively, and then 5 µL Predictor™ hERG Membrane and 2.5 µL of 4× Predictor™ hERG Tracer Red were sequentially added. The total volume of the experimental system was 10 µL, and three duplicate wells were set for each group. After loading, the plate was gently tapped to mix well and incubated at room temperature (25 °C) in the dark for 3.5 h. After the incubation was completed, the fluorescence polarization value mP was measured on a microplate reader, and G Factor was 2.14.
The inhibition rate of the test substance was calculated using the following formula: [formula]

Series [1] relates to human large cell lung cancer cell line LU99. Nature of the series: Efficacy in LU99 xenograft mouse model. It is filed as in vivo, Balb/c nude mice. Conditions: PO, qd, 28 days. The protocol:
The human large cell lung cancer cell line LU99 was purchased from Nanjing Cobioer Biosciences Co., Ltd. (CBP61512) and cultured in RPMI-1640 medium (Gibco) containing 10% fetal bovine serum (Gibco); the test substances were prepared into suspensions at concentrations of 0.3 mg/mL, 1 mg/mL, and 5 mg/mL using a 0.5% aqueous MC solution containing 0.2% Tween 80. Reference Example 6 (MRTX1719) was prepared into a 5 mg/mL clear solution using 40% PEG400 normal saline containing 2% DMSO.
LU99 cells in the logarithmic growth phase were digested, collected, and counted, and the cell density was adjusted to 2 × 10^7 cells/mL using a 1:1 serum-free medium and matrigel (Corning). 18-20 g of Balb/c nude mice (Beijing Huafukang Biotechnology Co., Ltd.) were inoculated subcutaneously with 100 µL of cell suspension per mouse. On day 12 after inoculation, animals with a mean tumor volume of 116 mm^3 were randomly grouped, with 7 animals in each group. The test substances were intragastrically administered at 3 mg/kg, 10 mg/kg, and 50 mg/kg once daily, and MRTX1719 was intragastrically administered at 50 mg/kg once daily. A vehicle (2% DMSO + 40% PEG400 + 58% normal saline) was intragastrically administered to the blank group at a dose of 10 mL/kg once daily. Administration was performed for 28 days in total.
After the animals were inoculated with LU99 cells, the tumor volume was measured 2-3 times a week, and the tumor volume was calculated based on length × width^2 × 0.5. On the day when the last administration was completed, except for the mice with tumor regression, which were subjected to discontinuation observation, the remaining mice were euthanized.
In the formula, VTt represents the tumor volume of the treatment group at each measurement, and VT0 represents the tumor volume measured when the treatment group is grouped; VCt represents the tumor volume of the model control group at each measurement, and VC0 represents the tumor volume measured when the model control group is grouped.
Data were analyzed using GraphPad Prism 9.0 software and expressed as Mean ± SEM (standard error). Pairwise comparisons between each administration group and the model control group were performed using one-way analysis of variance (ANOVA). Variance homogeneity was determined using the Brown-Forsythe method, and variance heterogeneity was determined using the Dunnett's T3 method. Table 8. Efficacy evaluation in LU99 xenograft mouse model

Series [2] in a line: Human liver microsome stability. It is filed as in vitro ADME. To be noted: pH 7.4; human liver microsomes 0.5 mg/mL, compound 1 µM, NADPH 1 mM, 37 °C. As for the experimental part:
Experimental materials: human liver microsomes (purchased from BIOIVT);
PBS: 0.1 M KH2PO4 and K2HPO4 buffers, pH 7.4.
MgCl2: a certain amount of MgCl2 was weighed out and prepared into a 16 mM MgCl2 solution with PBS.
NADPH (Chinese name: reduced nicotinamide adenine dinucleotide phosphate, purchased from Sigma, Cat. No.: 481973-500 mg): a certain amount of NADPH was weighed out and a 4 mM solution of NADPH was prepared with a 16 mM MgCl2 solution, and the final incubation concentration was 1 mM.
Compounds: 4 µM solutions of the test compounds and positive compounds were prepared with PBS, and the final incubation concentration was 1 µM.
Liver microsomes (purchased from BIOIVT, Cat. No.: X008070): the liver microsomes were diluted to […] with PBS, and the final incubation concentration was 0.5 mg/mL.
The prepared test compound or positive compound was added to a test tube, and then the prepared NADPH was added. The mixture was mixed well. The mixture was pre-incubated in a thermostat incubator at 220 rpm at 37 °C for 5 min, and the prepared liver microsomes were added to start the reaction. All steps were performed in replicate wells. At 0 min, 15 min, 30 min, 45 min, and 60 min, a certain volume of glacial acetonitrile solution containing an internal standard was added to the corresponding tube to precipitate the protein. The mixture was vortexed for 5 min with shaking, and then centrifuged at 4000 rpm for 10 min. […] The samples were analyzed by LC-MS/MS.
The concentrations (peak area ratios) of the example compounds were determined by LC-MS/MS. Rate constants were obtained by plotting "Ln (residual amount of compound %)" versus "incubation time" in Excel, thereby calculating the half-lives and intrinsic clearances of the drugs and providing a basis for the prediction of the in-vivo clearance.
[formula] CLH = CLint × fu × Qh /(CLint×fu+Qh) [formula]
Stability in human liver microsomes
(Liver microsomes are a subcellular fraction often used to study metabolism.)

The next series can be described thus: PK experiment in mice. Conditions: mouse, plasma, po, 10 mg/kg.
[3] abbreviates: human, probe Predictor hERG Tracer Red.

T1 sequence (Q12809 whole entry): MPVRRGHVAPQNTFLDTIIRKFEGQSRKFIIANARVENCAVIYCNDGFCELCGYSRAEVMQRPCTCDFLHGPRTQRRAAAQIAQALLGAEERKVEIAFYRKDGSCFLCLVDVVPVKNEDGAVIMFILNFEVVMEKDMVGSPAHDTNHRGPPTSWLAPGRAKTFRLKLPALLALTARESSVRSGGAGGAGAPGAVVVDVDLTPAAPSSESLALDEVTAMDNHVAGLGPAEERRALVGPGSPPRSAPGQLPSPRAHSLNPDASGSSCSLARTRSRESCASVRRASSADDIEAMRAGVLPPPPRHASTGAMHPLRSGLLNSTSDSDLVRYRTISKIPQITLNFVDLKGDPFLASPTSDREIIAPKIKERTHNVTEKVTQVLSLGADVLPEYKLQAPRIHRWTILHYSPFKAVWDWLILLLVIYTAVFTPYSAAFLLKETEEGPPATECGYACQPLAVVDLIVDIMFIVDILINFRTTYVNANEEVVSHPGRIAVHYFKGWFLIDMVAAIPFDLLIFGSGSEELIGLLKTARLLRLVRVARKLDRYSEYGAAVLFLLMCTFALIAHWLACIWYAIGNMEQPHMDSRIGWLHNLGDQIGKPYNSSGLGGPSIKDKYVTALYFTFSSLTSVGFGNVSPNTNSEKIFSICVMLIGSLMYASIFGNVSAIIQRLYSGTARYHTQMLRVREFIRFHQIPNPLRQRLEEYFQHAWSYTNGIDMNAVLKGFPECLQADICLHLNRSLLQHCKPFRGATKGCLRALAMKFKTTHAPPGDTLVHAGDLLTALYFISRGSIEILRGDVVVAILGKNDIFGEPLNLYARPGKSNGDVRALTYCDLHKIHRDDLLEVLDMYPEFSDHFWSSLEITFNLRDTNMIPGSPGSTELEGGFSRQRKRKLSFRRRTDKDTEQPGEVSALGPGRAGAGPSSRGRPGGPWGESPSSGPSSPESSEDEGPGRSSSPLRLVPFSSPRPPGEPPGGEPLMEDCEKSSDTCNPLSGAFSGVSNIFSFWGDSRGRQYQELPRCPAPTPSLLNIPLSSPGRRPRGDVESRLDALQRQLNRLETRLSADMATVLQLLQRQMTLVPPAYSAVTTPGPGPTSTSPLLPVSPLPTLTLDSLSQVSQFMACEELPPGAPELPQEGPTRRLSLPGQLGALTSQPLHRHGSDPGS
Protocol for PK experiment in mice: Experimental materials: the experimental animals were healthy adult female BALB/c mice (provided by Sichuan Vital River Laboratory Animal Technology Co., Ltd.).
Administration mode and sample collection in mice: BALB/c female mice received oral intragastrical administration (10 mg/kg, vehicle: 0.5% methylcellulose/0.2% Tween 80), and 60 µL of whole blood from the venous plexus of the fundus of the mice at different time points was collected at 0.25 h, 0.5 h, 1 h, 2 h, 4 h, 6 h, 8 h, and 24 h after administration and centrifuged at 4000 rpm for 6 min to collect plasma.
10 µL of mouse plasma sample was added to 190 µL of acetonitrile solution containing an internal standard to precipitate protein. The mixture was vortexed for 10 min and centrifuged at 4000 rpm for 10 min. The supernatant was collected and added to a 96-well plate. The samples were analyzed by LC-MS/MS. The drug concentrations in the plasma of mice at different time points after intragastric administration of the example compounds were measured by an LC-MS/MS method, and the related pharmacokinetic parameters were calculated, such that the pharmacokinetic behavior of the compounds in the mice was studied, and the pharmacokinetic characteristics were evaluated.

As to `CN(C(=O)c1cc2c(cc1F)nc(N)c1cnn(C)c12)[C@@H]1COc2cc(C#Cc3cnn(C)c3)ccc21` [Compound 5A, (S)-4-amino-7-fluoro-N,1-dimethyl-N-(6-((1-methyl-1H-pyrazol-4-yl)ethynyl)-2,3-dihydrobenzofuran-3-yl)-1H-pyrazolo[4,3-c]quinoline-8-carboxamide], the results for the AUC(0-t) in “PK experiment in rats” and in the series “PK experiment in mice” were 15600 ± 4640 ng·h/mL and 15700 ± 1600 ng·h/mL, respectively. In addition, the Cmax in the series “PK experiment in rats” was 2180 ± 777 ng/mL; in the series “PK experiment in mice”, 2220 ± 230 ng/mL. Further, on hERG (herg membrane fluorescence polarization), the inhibition at 3.5 h, 10 µM is 27.7%. For the same compound, the IC50 at hERG was over 10 µM. Moreover, the TGI in series [1] (3 mg/kg) was 81.96%; in series [1] (10 mg/kg), 95.20%; in series [1] (50 mg/kg), 103.12%. For the same compound, the figures for the Tumor volume in series [1] (3 mg/kg), in series [1] (10 mg/kg) and in series [1] (50 mg/kg) were 438.73 mm^3, 202.05 mm^3 and 60.72 mm^3, respectively. In addition, the half-life at 1 µM in series [2] came out at 1.11 h.
As to `CN(C(=O)c1cc2c3c(c(N)nc2cc1Cl)COC3)[C@@H]1COc2cc(C#Cc3cnn(C4CC4)c3)ccc21` [Compound 43A, (S)-4-amino-7-chloro-N-(6-((1-cyclopropyl-1H-pyrazol-4-yl)ethynyl)-2,3-dihydrobenzofuran-3-yl)-N-methyl-1,3-dihydrofuro[3,4-c]quinoline-8-carboxamide], the area under the curve AUC(0-t) in “PK experiment in rats” worked out at 9650 ± 1170 ng·h/mL; in the series “PK experiment in mice” (female, BALB/c), 32300 ± 3340 ng·h/mL. For the same compound, the Cmax in the series “PK experiment in rats” was 1220 ± 417 ng/mL; in the series “PK experiment in mice” (female, BALB/c), 3420 ± 913 ng/mL. Also, on hERG (setting [3]), the inhibition at 3.5 h, 10 µM was 30.3 ± 29.9%. Besides, the IC50 on hERG is over 10 µM. The TGI in series [1] (3 mg/kg) is recorded as 83.27%; in series [1] (10 mg/kg) it was 94.77%; in series [1] (50 mg/kg), 104.92%. In addition, the Tumor volume in series [1] (3 mg/kg) is 415.58 mm^3; in series [1] (10 mg/kg) it was 210.31 mm^3; in series [1] (50 mg/kg), 28.13 mm^3. The compound further gave a half-life at 1 µM in series [2] of 2.03 h.
Turning to `Cc1nn(C)cc1C#Cc1ccc2c(c1)OC[C@H]2N(C)C(=O)c1cc2c3c(c(N)nc2cc1Cl)COC3` [Compound 50A, (S)-4-amino-7-chloro-N-(6-((1,3-dimethyl-1H-pyrazol-4-yl)ethynyl)-2,3-dihydrobenzofuran-3-yl)-N-methyl-1,3-dihydrofuro[3,4-c]quinoline-8-carboxamide], the inhibition at 3.5 h, 10 µM on hERG (setting [3]) was 22.4%. Moreover, the IC50 at hERG was over 10 µM. The half-life at 1 µM in series [2] was 0.832 h.
